Measured values reported in patent EP2093288A1, “NOVEL DIPEPTIDE-DIGESTING ENZYME, METHOD OF PRODUCING THE SAME, METHOD OF ASSAYING GLYCATED PROTEIN BY USING THE DIPEPTIDE-DIGESTING ENZYME AND REAGENT COMPOSITION TO BE USED THEREIN” (Amano Enzyme Inc., priority 2006, dated 2008).
Read-outs that look alike come from different tables or passages of the source. Non-standard residues stand in square brackets, D forms with d. Residues, ends and D or L forms follow the SMILES beside them. *: point of attachment. Sta = CC(C)C[C@H](N)[C@@H](O)CC(=O)O; Isovaleryl = CC(C)CC(=O)*

How the values were obtained:
Format in all cases: biochemical, Sphingopyxis chilensis No. 0522
[1] = system: dipeptide-degrading enzyme; test: Substrate specificity: dipeptide-degrading activity measurement of Example 3 with changed substrate; details: substrate changed from Fru-Val-His; 37°C, pH 6.2
Procedure: (§1) The dipeptide-degrading activity may be measured by quantifying Fru-Val or histidine formed upon the degradation of Fru-Val-His. The method for quantifying histidine is described below. The amount of enzyme degrading 1 µmol of Fru-Val-His in 1 minute is defined as 1 unit of enzymatic activity (U). The reagents (1), (2), and (3), and a substrate solution used for measuring the activity were prepared as described below.
(§2) Substrate solution: Fru-Val-His (Peptide Institute Inc.) was dissolved in 100 mM of a MOPS buffer (pH 7.0), thus obtaining 40 mM of substrate solution.
0.02 mL of 1.40 mM substrate solution and 0.16 mL of the reagent (1) were accurately dispensed and mixed, and preincubated at 37°C for 5 minutes. Thereafter, 0.02 mL of enzyme solution was accurately added to and mixed with the mixture, and allowed to react at 37°C. As a blank test, 0.02 mL of the reagent (1) was added in place of the enzyme solution. After a lapse of 10 minutes, 0.8 mL of the reagent (3) was accurately added to and mixed with the mixture, and allowed to react at 37°C. After a lapse of 15 minutes, the absorbance at 505 nm was measured, and the dipeptide-degrading activity was calculated according to the calculation formula described below. The enzyme solution was appropriately diluted with the reagent (1) such that ΔABS = (As-Ab) ≤ 0.50 Abs, and used as the sample. […]

[2] = system: dipeptide-degrading enzyme; test: Reactivity in actual measurement system for glycosylated dipeptide (Example 15 method, reagents E, B, C, absorbance at 555 nm)
Procedure: A glycosylated dipeptide was measured using a glycosylated hemoglobin β chain dipeptide Fru-Val-His (Peptide Institute Inc.). The reagents B and C were prepared according to the following recipes, and used for the study. Since the specimen was a glycosylated dipeptide, no protease was necessary. Therefore, the reagent E used herein had the same composition with the reagent A except that no protease was used. However, the glycosylated dipeptide may be quantified only with the reagents B and C without using the reagent E. The dipeptide-degrading enzyme used herein is the purified enzyme obtained in Example 6.
40 mM Fru-Val-His was prepared, and diluted with a 100 mM MOPS buffer (pH 7.0), thus making 0.1, 0.2, 0.4, 0.6, and 0.8 mM Fru-Val-His solutions. To 0.01 mL each of the diluting solutions, 0.04 mL of the reagent E was added, and allowed to react at 37°C for 5 minutes. 0.1 mL of the reagent B was added to each of the reaction liquids, and allowed to react at 37°C for 10 minutes. Thereafter, 0.9 mL of the reagent C was added to each of the reaction liquids, and allowed to react at 37°C. The absorbance at 555 nm was measured, and the increase (ΔOD) of the absorbance 5 minutes after initiation of the reaction was determined. […]

[3] = system: dipeptide-degrading enzyme; test: Influence of metal ions and the like on enzymatic activity (dipeptide-degrading activity, Example 3 method)
Procedure: as §1, §2
0.02 mL of 1.40 mM substrate solution and 0.16 mL of the reagent (1) were accurately dispensed and mixed, and preincubated at 37°C for 5 minutes. Thereafter, 0.02 mL of enzyme solution was accurately added to and mixed with the mixture, and allowed to react at 37°C. As a blank test, 0.02 mL of the reagent (1) was added in place of the enzyme solution. After a lapse of 10 minutes, 0.8 mL of the reagent (3) was accurately added to and mixed with the mixture, and allowed to react at 37°C. After a lapse of 15 minutes, the absorbance at 505 nm was measured, and the dipeptide-degrading activity was calculated according to the calculation formula described below. The enzyme solution was appropriately diluted with the reagent (1) such that ΔABS = (As-Ab) ≤ 0.50 Abs, and used as the sample. The symbols and numerical values in the calculation formula represents the followings. • As: absorbance of enzyme solution • Ab: absorbance of blank solution • ΔABS: As - Ab • 12.88: millimole absorptivity (mmol/L/cm) of quinone pigment at 505 nm • 10: reaction time (min) • 2: coefficient representing that one molecule of quinone pigment is formed from two molecules of H2O2 • 1: light path length (cm) • 1.0: total amount of reaction solution (mL) • 0.02: Amount of enzyme solution used for reaction (mL) • n: enzyme solution dilution ratio
Calculation formula Activity(U/mL) = ΔABS/10/12.88 × 2 × 1 × 1.0/0.02 × n [formula]
The enzymatic activity was measured in the same manner as Example 3, except that the reagent (1) was replaced with various metals and the like at specified concentrations (Table 2) and a 100 mM PIPES buffer (pH 6.2) containing 0.1% Triton X-100.

[4] = Conc. 1mM, 100 mM PIPES buffer (pH 6.2), 0.1% Triton X-100, None = 100
[5] = Conc. 2mM, 100 mM PIPES buffer (pH 6.2), 0.1% Triton X-100, None = 100
[6] = Conc. 50mM, 100 mM PIPES buffer (pH 6.2), 0.1% Triton X-100, None = 100

| Compound | Relative activity (%) [3, 4] | Relative activity (%) [3, 5] | other results |
| --- | --- | --- | --- |
| CC(C)C[C@H](NC(=O)[C@@H](NCC(=O)[C@@H](O)[C@H](O)[C@H](O)CO)C(C)C)C(=O)O [Fru-Val-Leu, fructosyl valyl leucine] | – | – | activity value of the dipeptide-degrading enzyme for the substrate, relative to that for Fru-Val-His [1]: 4.9%; absorbance change converted into the Fru-Val-His concentration ([2]; 0.8 mM substrate, converted using Fig. 7): 0.14 mM; reactivity ([2]; for the 0.8 mM substrate, relative to Fru-Val-His): 18% |
| [Ca+2].[Cl-].[Cl-] [CaCl2] | 162% | – | – |
| O=C(O)CI [Monoiode acetate] | – | – | Relative activity (%) ([3]; pH 6.2, 2000 µM): 111% |
| CC(C)CC(=O)N[C@H](C(=O)N[C@H](C(=O)N[C@@H](CC(C)C)[C@@H](O)CC(=O)N[C@@H](C)C(=O)N[C@@H](CC(C)C)[C@@H](O)CC(=O)O)C(C)C)C(C)C [Pepstatin A] (Isovaleryl-VV[Sta]A[Sta]-OH) | – | – | Relative activity (%) ([3]; Conc. 10 µg/ml, 100 mM PIPES buffer (pH 6.2), 0.1% Triton X-100, None = 100): 100% |
| [Cl][Mn][Cl] [MnCl2] | 137% | – | – |
| O=C(O)CN(CCN(CC(=O)O)CC(=O)O)CC(=O)O [EDTA] | – | – | influences of the metal ions and the like on the enzymatic activity [3]: deactivated; Relative activity (%) ([3]; pH 6.2, 5000 µM): 1% |
| O=C(O)CS [Thioglycolic acid] | – | 3% | – |
| NH4Cl | – | – | Relative activity (%) [3, 6]: 85% |
| [Cl][Ni][Cl] [NiCl2] | 156% | – | – |
| CCCCCCCCCCCCOS(=O)(=O)O [SDS] | – | 9% | – |
| KCl | – | – | Relative activity (%) [3, 6]: 97% |
| OCCS [2-Mercaptoethanol] | – | 11% | – |
| [Ba+2].[Cl-].[Cl-] [BaCl2] | 105% | – | – |
| c1cnc2c(c1)ccc1cccnc12 [o-Phenanthroline] | – | 0% | – |
| [Cl][Cu][Cl] [CuCl2] | 75% | – | – |
| [Cl-].[Cl-].[Zn+2] [ZnCl2] | 257% | – | influences of the metal ions and the like on the enzymatic activity ([3]; summary in words of Table 2): activated |
| [Cl-].[Cl-].[Mg+2] [MgCl2] | 261% | – | influences of the metal ions and the like on the enzymatic activity ([3]; summary in words of Table 2): activated |
| [Cl-].[Cl-].[Co+2] [CoCl2] | 676% | – | influences of the metal ions and the like on the enzymatic activity ([3]; summary in words of Table 2): activated |
| c1ccc(-c2ccccn2)nc1 [α, α'-Dipyridyl] | – | 1% | influences of the metal ions and the like on the enzymatic activity ([3]; summary in words of Table 2): deactivated |
| O=S(=O)(F)Cc1ccccc1 [PMSF] | – | 97% | – |
| NaCl | – | – | Relative activity (%) ([3]; pH 6.2, 50000 µM): 98% |
| O=P1([O-])OP(=O)([O-])OP(=O)([O-])OP(=O)([O-])OP(=O)([O-])OP(=O)([O-])O1.[Na+].[Na+].[Na+].[Na+].[Na+].[Na+] [Sodium Hexametaphosphate] | – | 4% | – |
